From patent US11691951B2 (Curtana Pharmaceuticals, Inc., priority 2015, dated 2023)

The compounds below were run on GBM8 cells (human glioblastoma neurosphere cell culture) (assay: GBM8 viability assay (Cell Titer Glo luminescence, 3 days)). Conditions: 72 h, 3 days incubation.
Assay type: cell-based
Method: Example 283: GBM4 and GBM8 Viability Assay
Cell culture medium was prepared from a NSA proliferation kit (Neurocult) and NeuroCult supplements (Stemcell Tech Cat. #05751) and treated with 20 μL of 10 μg/mL rh EGF, 10 μL of 10 μg/mL rh bFGF and 10 μL of 0.2% Heparin. In this medium, human glioblastoma cells were cultured in ultra-low attachment tissue culture flasks until 1×10^6 cells ml was achieved (GBM4 and GBM8 are distinct neurosphere cell cultures derived from these human patient tissues). GBM4 and GBM8 cells were dissociated and 10 mL of media containing 4000 human glioblastoma cells per 90 uL were transferred to an ultra-low binding 96-well plate and incubated at 37° C. overnight. On the following day, 10 μL of a 1% DMSO solution of test compound in assay medium was added to wells containing the cell suspension and the mixture incubated at 37° C. for 3 days. At this time, the plate was removed from the incubator and allowed to reach room temperature. After about 30 minutes, 50 μL of Cell Titer Glo solution was added to each well and the plate shaken for 1 minute at low speed. After 10 minutes luminescence was recorded using a Tecan Safire2 reader.
Reduction in luminescence compared to DMSO only control wells was used to determine the percentage inhibition of cell growth. IC50s were calculated using the % inhibition of luminescence for serial dilutions of compounds fitted to a 4-parameter fit within the Prism (San Diego) curve fitting program.

IC50 [nM] | Structure (SMILES)
1000 to 10000 | COc1cccc(NC(=O)Nc2nc(C)cc(NCCN)n2)c1 [Compound 144]
1000 to 10000 | COc1cccc(NC(=O)Nc2nc(C)cc(NCCN(C)C)n2)c1 [Compound 145]
1000 to 10000 | COc1cccc(NC(=O)Nc2nc(C)cc(NCCCCO)n2)c1 [Compound 146]
1000 to 10000 | COc1cccc(NC(=O)Nc2nc(C)cc(NCC(C)O)n2)c1 (stereo not drawn) [Compound 147]
1000 to 10000 | COc1cccc(NC(=O)Nc2nc(C)cc(NCCCCN(C)C)n2)c1 [Compound 148]
1000 to 10000 | COc1cccc(NC(=O)Nc2nc(C)cc(NCCCc3ncc[nH]3)n2)c1 [Compound 149]
1000 to 10000 | COc1cccc(NC(=O)Nc2nc(C)cc(NCC(O)CO)n2)c1 (stereo not drawn) [Compound 151]
1000 to 10000 | CNCCNc1cc(C)nc(NC(=O)Nc2cccc(OC)c2)n1 [Compound 153, 1-(3-methoxyphenyl)-3-(4-methyl-6-((2-(methylamino)ethyl)amino)pyrimidin-2-yl)urea]
1000 to 10000 | CNCCCCNc1cc(C)nc(NC(=O)Nc2cccc(OC)c2)n1 [Compound 154]
1000 to 10000 | COc1cccc(NC(=O)Nc2nc(C)cc(NCC3CCCNC3)n2)c1 (stereo not drawn) [Compound 155]
< 1000 | Cc1cc(NCCCN(C)C)nc(NC(=O)Nc2ccc(F)c(Cl)c2)n1 [Compound 157, 1-(3-chloro-4-fluorophenyl)-3-(4-((3-(dimethylamino)propyl)amino)-6-methylpyrimidin-2-yl)urea]
< 1000 | Cc1cc(NCCCN)nc(NC(=O)Nc2ccc(F)c(Cl)c2)n1 [Compound 158, 1-(4-((3-aminopropyl)amino)-6-methylpyrimidin-2-yl)-3-(3-chloro-4-fluorophenyl)urea]
1000 to 10000 | Cc1cc(NCCN(C)C)nc(NC(=O)Nc2ccc(F)c(Cl)c2)n1 [Compound 159]
< 1000 | Cc1cc(NCCCCN)nc(NC(=O)Nc2ccc(F)c(Cl)c2)n1 [Compound 160]
< 1000 | Cc1cc(NCCO)nc(NC(=O)Nc2ccc(F)c(Cl)c2)n1 [Compound 161]
< 1000 | Cc1cc(NCCN)nc(NC(=O)Nc2ccc(F)c(Cl)c2)n1 [Compound 162]
< 1000 | Cc1cc(NCCCCO)nc(NC(=O)Nc2ccc(F)c(Cl)c2)n1 [Compound 163]
< 1000 | Cc1cc(NCC(C)O)nc(NC(=O)Nc2ccc(F)c(Cl)c2)n1 (stereo not drawn) [Compound 164]
< 1000 | CCCNc1cc(C)nc(NC(=O)Nc2ccc(F)c(Cl)c2)n1 [Compound 165]
< 1000 | Cc1cc(NCCOCCO)nc(NC(=O)Nc2ccc(F)c(Cl)c2)n1 [Compound 166]
1000 to 10000 | COC(=O)CCNc1cc(C)nc(NC(=O)Nc2ccc(F)c(Cl)c2)n1 [Compound 167]
< 1000 | CNCCNc1cc(C)nc(NC(=O)Nc2ccc(F)c(Cl)c2)n1 [Compound 169, 1-(3-chloro-4-fluorophenyl)-3-(4-methyl-6-((2-(methylamino)ethyl)amino)pyrimidin-2-yl)urea]
< 1000 | CNCCCNc1cc(C)nc(NC(=O)Nc2ccc(F)c(Cl)c2)n1 [Compound 170]
< 1000 | Cc1cc(NCCCN(C)C)nc(NC(=O)Nc2cccc(OC(F)(F)F)c2)n1 [Compound 172, 1-(4-((3-(dimethylamino)propyl)amino)-6-methylpyrimidin-2-yl)-3-(3-(trifluoromethoxy)phenyl)urea]

IC50 [nM] | Structure (SMILES)
< 1000 | Cc1cc(NCCCCN)nc(NC(=O)Nc2cccc(OC(F)(F)F)c2)n1 [Compound 173]
1000 to 10000 | Cc1cc(NCCN(C)C)nc(NC(=O)Nc2cccc(OC(F)(F)F)c2)n1 [Compound 174]
< 1000 | Cc1cc(NCCCCO)nc(NC(=O)Nc2cccc(OC(F)(F)F)c2)n1 [Compound 175]
< 1000 | Cc1cc(NCCO)nc(NC(=O)Nc2cccc(OC(F)(F)F)c2)n1 [Compound 176]
< 1000 | Cc1cc(NCCCN)nc(NC(=O)Nc2cccc(OC(F)(F)F)c2)n1 [Compound 177]
< 1000 | Cc1cc(NCCN)nc(NC(=O)Nc2cccc(OC(F)(F)F)c2)n1 [Compound 178]
< 1000 | Cc1cc(NCCCN(C)C)nc(NC(=O)Nc2cccc(C(F)(F)F)c2)n1 [Compound 180, 1-(4-((3-(dimethylamino)propyl)amino)-6-methylpyrimidin-2-yl)-3-(3-(trifluoromethyl)phenyl)urea]
< 1000 | Cc1cc(NCCCCO)nc(NC(=O)Nc2cccc(C(F)(F)F)c2)n1 [Compound 181]
< 1000 | Cc1cc(NCCN)nc(NC(=O)Nc2cccc(C(F)(F)F)c2)n1 [Compound 182]
1000 to 10000 | Cc1cc(NCCOCCO)nc(NC(=O)Nc2cccc(C(F)(F)F)c2)n1 [Compound 183]
< 1000 | Cc1cc(NCCO)nc(NC(=O)Nc2cccc(C(F)(F)F)c2)n1 [Compound 184]
< 1000 | Cc1cc(NCC(C)O)nc(NC(=O)Nc2cccc(C(F)(F)F)c2)n1 (stereo not drawn) [Compound 185]
< 1000 | Cc1cc(NCC(O)CO)nc(NC(=O)Nc2cccc(C(F)(F)F)c2)n1 (stereo not drawn) [Compound 187]
< 1000 | Cc1cc(NCC(F)(F)CO)nc(NC(=O)Nc2cccc(C(F)(F)F)c2)n1 [Compound 188]
1000 to 10000 | Cc1cc(NCCN(C)C)nc(NC(=O)Nc2cccc(C(F)(F)F)c2)n1 [Compound 189]
< 1000 | Cc1cc(NCCCCN)nc(NC(=O)Nc2cccc(C(F)(F)F)c2)n1 [Compound 190]
< 1000 | Cc1cc(NCCCCN(C)C)nc(NC(=O)Nc2cccc(C(F)(F)F)c2)n1 [Compound 191]
< 1000 | Cc1cc(NCCCN)nc(NC(=O)Nc2cccc(C(F)(F)F)c2)n1 [Compound 192]
< 1000 | CNCCCNc1cc(C)nc(NC(=O)Nc2cccc(C(F)(F)F)c2)n1 [Compound 194, 1-(4-methyl-6-((3-(methylamino)propyl)amino)pyrimidin-2-yl)-3-(3-(trifluoromethyl)phenyl)urea]
< 1000 | Cc1cc(NCCCN(C)C)nc(NC(=O)Nc2ccc(C(F)(F)F)cc2)n1 [Compound 196, 1-(4-((3-(dimethylamino)propyl)amino)-6-methylpyrimidin-2-yl)-3-(4-(trifluoromethyl)phenyl)urea]
< 1000 | Cc1cc(NCCCCN)nc(NC(=O)Nc2ccc(C(F)(F)F)cc2)n1 [Compound 197]
< 1000 | Cc1cc(NCC(C)O)nc(NC(=O)Nc2ccc(C(F)(F)F)cc2)n1 (stereo not drawn) [Compound 198]
< 1000 | Cc1cc(NCCOCCO)nc(NC(=O)Nc2ccc(C(F)(F)F)cc2)n1 [Compound 199]
< 1000 | Cc1cc(NCCCCO)nc(NC(=O)Nc2ccc(C(F)(F)F)cc2)n1 [Compound 200]

IC50 [nM] | Structure (SMILES)
< 1000 | Cc1cc(NCCO)nc(NC(=O)Nc2ccc(C(F)(F)F)cc2)n1 [Compound 201]
< 1000 | CCCNc1cc(C)nc(NC(=O)Nc2ccc(C(F)(F)F)cc2)n1 [Compound 202]
< 1000 | Cc1cc(NCCN(C)C)nc(NC(=O)Nc2ccc(C(F)(F)F)cc2)n1 [Compound 203]
1000 to 10000 | Cc1cc(NCCCN)nc(NC(=O)Nc2ccc(C(F)(F)F)cc2)n1 [Compound 204]
1000 to 10000 | CNCCCN(C)c1cc(C)nc(NC(=O)Nc2ccc(C(F)(F)F)cc2)n1 [Compound 205]
1000 to 10000 | Cc1cc(NCC2CCCN(C)C2)nc(NC(=O)Nc2ccc(C(F)(F)F)cc2)n1 (stereo not drawn) [Compound 206]
< 1000 | Cc1cc(NCCN)nc(NC(=O)Nc2ccc(C(F)(F)F)cc2)n1 [Compound 207]
< 1000 | Cc1cccc(NC(=O)Nc2nc(C)cc(NCCCN(C)C)n2)c1 [Compound 209, 1-(4-((3-(dimethylamino)propyl)amino)-6-methylpyrimidin-2-yl)-3-(m-tolyl)urea]
< 1000 | Cc1cccc(NC(=O)Nc2nc(C)cc(NCCCN)n2)c1 [Compound 210]
< 1000 | Cc1cccc(NC(=O)Nc2nc(C)cc(NCCO)n2)c1 [Compound 211]
< 1000 | Cc1cccc(NC(=O)Nc2nc(C)cc(NCCCCO)n2)c1 [Compound 212]
< 1000 | Cc1cccc(NC(=O)Nc2nc(C)cc(NCCN)n2)c1 [Compound 213]
1000 to 10000 | Cc1cccc(NC(=O)Nc2nc(C)cc(NCC3CCCN(C)C3)n2)c1 (stereo not drawn) [Compound 214]
< 1000 | Cc1cccc(NC(=O)Nc2nc(C)cc(NCCN(C)C)n2)c1 [Compound 215]
< 1000 | Cc1cccc(NC(=O)Nc2nc(C)cc(NCCCCN)n2)c1 [Compound 216]
< 1000 | Cc1cccc(NC(=O)Nc2nc(C)cc(NCCOCCO)n2)c1 [Compound 217]
< 1000 | CCCNc1cc(C)nc(NC(=O)Nc2cccc(C)c2)n1 [Compound 218]
< 1000 | Cc1cccc(NC(=O)Nc2nc(C)cc(NCC(C)O)n2)c1 (stereo not drawn) [Compound 219]
1000 to 10000 | COC(=O)CCNc1cc(C)nc(NC(=O)Nc2cccc(C)c2)n1 [Compound 220]
1000 to 10000 | Cc1cccc(NC(=O)Nc2nc(C)cc(NCCCc3ccccn3)n2)c1 [Compound 221]
< 1000 | Cc1cccc(NC(=O)Nc2nc(C)cc(NCC(O)CO)n2)c1 (stereo not drawn) [Compound 223]
< 1000 | CCNc1cc(C)nc(NC(=O)Nc2cccc(C)c2)n1 [Compound 224]
< 1000 | Cc1cccc(NC(=O)Nc2nc(C)cc(NCCCc3cnc[nH]3)n2)c1 [Compound 226]
< 1000 | Cc1cccc(NC(=O)Nc2nc(C)cc(NCCCCN(C)C)n2)c1 [Compound 227]
